Reference: PubChem BioAssay (NCI)
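1) Cells in 96-well plates. 2) Compound, 48 h, 5 concentrations. 3) Linear interpolation between surrounding doses. 4) Unreached endpoint = highest concentration. GI50: concentration for 50% inhibition of growth. The concentration for full growth arrest is given as TGI.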

What was measured:
Assay in all cases: NCI anticancer screen, dose series, 48 h
SK-OV-3 ovarian = system: SK-OV-3 ovarian
SF-539 CNS = system: SF-539 CNS
HOP-62 NSCLC = system: HOP-62 NSCLC
HS 578T breast = system: HS 578T breast
MDA-MB-435 = system: MDA-MB-435
CAKI-1 renal = system: CAKI-1 renal
OVCAR-5 ovarian = system: OVCAR-5 ovarian
KM12 colon = system: KM12 colon
SW-620 colon = system: SW-620 colon
HCC-2998 colon = system: HCC-2998 colon

SMILES	TGI (SK-OV-3 ovarian)	TGI (SF-539 CNS)	TGI (HOP-62 NSCLC)	TGI (HS 578T breast)	TGI (MDA-MB-435)	TGI (CAKI-1 renal)	TGI (OVCAR-5 ovarian)	TGI (KM12 colon)	TGI (SW-620 colon)	TGI (HCC-2998 colon)	GI50 (SK-OV-3 ovarian)	GI50 (SF-539 CNS)	GI50 (HOP-62 NSCLC)	GI50 (HS 578T breast)	GI50 (MDA-MB-435)	GI50 (CAKI-1 renal)	GI50 (KM12 colon)	GI50 (SW-620 colon)	GI50 (OVCAR-5 ovarian)	GI50 (HCC-2998 colon)
CCO/C=C1\SC(=S)N(c2ccc(OCC)cc2)C1=O	> 100 µM	> 100 µM	> 100 µM	> 100 µM	> 100 µM	> 100 µM	> 100 µM	> 100 µM	> 100 µM	> 100 µM	–	–	–	–	–	–	–	–	–	–
COc1ccc2c(C(=O)O)cc3ccccc3c2c1OC	> 100 µM	57.7 µM	> 100 µM	–	–	–	38.7 µM	33.9 µM	36.4 µM	46.8 µM	–	–	–	–	–	–	–	–	–	–
COc1ccc(Nc2cnc3cc(N)cc(N)c3n2)cc1	80.9 µM	36.6 µM	51.9 µM	63.3 µM	33.8 µM	64.9 µM	–	36.2 µM	52.8 µM	–	28.2 µM	17.3 µM	24.4 µM	21.9 µM	16.7 µM	23 µM	18.4 µM	21.8 µM	–	–
O=C1c2ccccc2C(=O)c2c(NC3CCCCC3)ccc(Nc3ccc(S(=O)(=O)O)cc3)c21	> 100 µM	> 100 µM	> 100 µM	> 100 µM	> 100 µM	> 100 µM	> 100 µM	> 100 µM	> 100 µM	71.1 µM	–	–	–	–	–	–	–	–	–	–
O=C(COc1ccc(/C=C2\Oc3ccccc3C2=O)cc1)Nc1nc2ccccc2s1	> 100 µM	> 100 µM	> 100 µM	96.4 µM	> 100 µM	–	> 100 µM	> 100 µM	> 100 µM	> 100 µM	61.7 µM	3.16 µM	> 69.4 µM	18.1 µM	8.21 µM	1.79 µM	2.09 µM	24.2 µM	39.4 µM	33.1 µM
COc1cc(C(=O)/C=C/c2cccc(Nc3ccnc4cc(Cl)ccc34)c2)cc(OC)c1OC	4.51 µM	2.68 µM	2.27 µM	14.2 µM	–	–	3.29 µM	–	2.44 µM	3.21 µM	1.94 µM	1.36 µM	0.676 µM	2.49 µM	–	–	–	0.445 µM	1.7 µM	1.72 µM
Cc1ccccc1C(CCCO)C(=O)O (configuration not stated)	> 100 µM	> 100 µM	> 100 µM	–	–	> 100 µM	> 100 µM	> 100 µM	> 100 µM	–	–	–	–	–	–	–	–	–	–	–
CCCCCCCCCCCCCCNC(=O)Nc1ccc(Cl)c(Cl)c1	> 28.3 µM	> 100 µM	> 23.1 µM	15 µM	8.33 µM	–	> 100 µM	8.44 µM	> 100 µM	> 100 µM	3 µM	4.07 µM	2.77 µM	3.14 µM	2.82 µM	–	3 µM	3.18 µM	3.69 µM	2.85 µM
CCOC(=O)C1=C(NC)OCC1=O	> 100 µM	> 100 µM	> 100 µM	–	–	> 100 µM	> 100 µM	> 100 µM	> 100 µM	> 100 µM	–	–	–	–	–	–	–	–	–	–
CC(=O)Nc1ccc(C2CC(c3ccc([N+](=O)[O-])cc3)=Nc3ccccc3S2=O)cc1 (configuration not stated)	70.5 µM	70.2 µM	49.8 µM	–	–	–	> 100 µM	35.1 µM	62.4 µM	30.5 µM	–	–	–	–	–	–	–	–	–	–
O=C(NCCc1ccccc1)C1C(=O)C(=O)N(CCc2ccccc2)C1=O (configuration not stated)	> 100 µM	> 100 µM	–	–	–	> 100 µM	–	> 100 µM	> 100 µM	–	–	–	–	–	–	–	–	–	–	–
CC12OC(=O)C(C#N)C1(C)C1C(=O)CCCC12 (configuration not stated)	> 100 µM	> 100 µM	–	–	–	–	> 100 µM	> 100 µM	> 100 µM	–	–	–	–	–	–	–	–	–	–	–
N#Cc1ccc(Sc2nc3ccccc3[nH]2)cc1	> 100 µM	> 100 µM	> 100 µM	–	–	> 100 µM	> 100 µM	> 100 µM	> 100 µM	–	–	–	–	–	–	–	–	–	–	–
COc1ccc(-c2[nH]c3ccc(OC)cc3c2C=C(C#N)C#N)cc1	> 100 µM	> 100 µM	> 100 µM	> 100 µM	–	> 100 µM	> 100 µM	> 100 µM	> 100 µM	–	0.731 µM	1.32 µM	3.34 µM	0.924 µM	–	–	0.52 µM	0.568 µM	> 100 µM	–
O=C1C2C3C=CC(C2C(=O)N1CO)C1C2C(=O)N(CO)C(=O)C2C31 (configuration not stated)	> 100 µM	> 100 µM	> 100 µM	–	–	> 100 µM	> 100 µM	> 100 µM	> 66.7 µM	> 100 µM	–	–	–	–	–	–	–	–	–	–
COc1ccc2nc(NC(=O)C(=O)CC(=O)c3ccc([N+](=O)[O-])cc3)sc2c1	> 100 µM	> 100 µM	> 100 µM	–	–	> 100 µM	> 100 µM	> 100 µM	> 100 µM	> 100 µM	–	–	–	–	–	–	–	–	–	–
COc1cc(/C=C2\NC(=O)C(Cc3cc(OC)c(OC)c(C)c3OC)N(C(C)=O)C2=O)c(OC)c(C)c1OC (configuration not stated)	> 100 µM	> 100 µM	> 100 µM	–	–	> 100 µM	> 100 µM	> 100 µM	> 100 µM	> 100 µM	–	–	–	–	–	–	–	–	–	–
O=[N+]([O-])c1ccc(-c2ccc(C3=Nn4c(CNc5ccccc5Cl)nnc4SC3)o2)cc1	> 100 µM	> 100 µM	> 100 µM	–	–	> 100 µM	> 100 µM	> 100 µM	> 100 µM	> 100 µM	–	–	–	–	–	–	–	–	–	–
CC(=O)Oc1c(C(=O)[O-])cc(C(C)C)cc1C(C)C.CC(=O)Oc1c(C(=O)[O-])cc(C(C)C)cc1C(C)C.CC(=O)Oc1c(C(=O)[O-])cc(C(C)C)cc1C(C)C.CC(=O)Oc1c(C(=O)[O-])cc(C(C)C)cc1C(C)C.[Cu+2].[Cu+2]	35.4 µM	> 100 µM	54.4 µM	> 100 µM	9.16 µM	> 100 µM	> 100 µM	> 100 µM	> 100 µM	–	14.4 µM	72.3 µM	25 µM	50.5 µM	3.18 µM	> 100 µM	19.1 µM	42.1 µM	57.2 µM	–
Cc1ccc(S(=O)(=O)NCCCCC(N)C(=O)O)cc1 (configuration not stated)	> 100 µM	> 100 µM	> 100 µM	> 100 µM	> 100 µM	> 100 µM	> 100 µM	> 100 µM	> 100 µM	–	–	–	–	–	–	–	–	–	–	–
